What was measured:
[1] = tested on: HepG2; assay: Cytotoxicity against human HepG2 cells; assay type: functional, cell-based
[2] = tested on: MCF7; assay: Cytotoxicity against human MCF7 cells; assay type: functional, cell-based
[3] = tested on: MCF7; assay: Cytotoxicity against human MCF7 cells assessed as reduction in cell growth measured after 2 days by MTT assay; assay type: functional, cell-based; conditions: MCF7, 48 h
[4] = tested on: HCT-116; assay: Potency index, ratio of doxorubicin IC50 to compound IC50 for anticancer activity against human HCT-116 cells; assay type: functional
[5] = tested on: MCF7; assay: Potency index, ratio of doxorubicin IC50 to compound IC50 for anticancer activity against human MCF7 cells; assay type: functional
[6] = tested on: HepG2; assay: Potency index, ratio of doxorubicin IC50 to compound IC50 for anticancer activity against human HepG2 cells; assay type: functional
[7] = tested on: MCF7; assay: Antiproliferative activity against human MCF7 cells by SRB assay; assay type: functional, cell-based
[8] = tested on: NCI-H460; assay: Growth inhibition of human NCI-H460 cells; assay type: functional
[9] = tested on: PANC-1; assay: Growth inhibition of human PANC-1 cells; assay type: functional
[10] = tested on: BXPC-3; assay: Growth inhibition of human BXPC-3 cells; assay type: functional
[11] = tested on: A549; assay: Antitumor activity against human A549 cells xenografted in mouse model assessed as tumor growth inhibition relative to control; assay type: functional; parameters: scale not given: the % may be the effect or the level left
[12] = tested on: HCT-116; assay: Cytotoxicity against human HCT-116 cells; assay type: functional, cell-based
[13] = Inhibition of cell migration of human SUIT-2 cells; assay type: functional, cell-based
[14] = tested on: UO-31; assay: Antiproliferative activity against human UO-31 cells; assay type: functional
[15] = tested on: Panel NCI-60 (60 carcinoma cell lines); assay: Antiproliferative activity against human Panel NCI-60 (60 carcinoma cell lines) cells; assay type: functional
[16] = Antiproliferative activity against human SUIT-2 cells; assay type: functional, cell-based
[17] = tested on: MDA-MB-231; assay: Cytotoxicity against human MDA-MB-231 cells measured after 72 hrs; assay type: functional, cell-based; conditions: MDA-MB-231, 72 h
[18] = biological target: Bromodomain-containing protein 4 (Homo sapiens) (UniProt O60885); assay: Inhibition of GST tagged BRD4 (unknown origin) at 10 uM by HTRF assay relative to control
[19] = tested on: THP-1; assay: Antiproliferative activity against human THP-1 cells incubated for 24 hrs by trypan blue reagent based analysis; assay type: functional, cell-based; conditions: THP-1, 24 h
[20] = biological target: Histone deacetylase 4 (Homo sapiens, UniProt P56524); assay: Inhibition of human recombinant HDAC4 using Boc-Lys(Ac)-AMC as substrate preincubated for 15 mins followed by substrate addition and measured after 60 mins by fluorescence based analysis
[21] = tested on: A549; assay: Cytotoxicity against human A549 cells; assay type: functional, cell-based
[22] = Resistance factor, ratio of IC50 for human K562/VCR cells to IC50 for K562 cells; assay type: functional; conditions: time 72 hrs
[23] = tested on: MCF7; assay: Anticancer activity against human MCF7 cells incubated for 24 hrs by SRB method; assay type: functional, cell-based; conditions: MCF7, 24 h
[24] = tested on: HepG2; assay: Anticancer activity against human HepG2 cells incubated for 24 hrs by SRB method; assay type: functional, cell-based; conditions: HepG2, 24 h
[25] = tested on: HCT-116; assay: Anticancer activity against human HCT-116 cells incubated for 24 hrs by SRB method; assay type: functional, cell-based; conditions: HCT-116, 24 h

Chain of Histone deacetylase 4 (P56524 whole entry): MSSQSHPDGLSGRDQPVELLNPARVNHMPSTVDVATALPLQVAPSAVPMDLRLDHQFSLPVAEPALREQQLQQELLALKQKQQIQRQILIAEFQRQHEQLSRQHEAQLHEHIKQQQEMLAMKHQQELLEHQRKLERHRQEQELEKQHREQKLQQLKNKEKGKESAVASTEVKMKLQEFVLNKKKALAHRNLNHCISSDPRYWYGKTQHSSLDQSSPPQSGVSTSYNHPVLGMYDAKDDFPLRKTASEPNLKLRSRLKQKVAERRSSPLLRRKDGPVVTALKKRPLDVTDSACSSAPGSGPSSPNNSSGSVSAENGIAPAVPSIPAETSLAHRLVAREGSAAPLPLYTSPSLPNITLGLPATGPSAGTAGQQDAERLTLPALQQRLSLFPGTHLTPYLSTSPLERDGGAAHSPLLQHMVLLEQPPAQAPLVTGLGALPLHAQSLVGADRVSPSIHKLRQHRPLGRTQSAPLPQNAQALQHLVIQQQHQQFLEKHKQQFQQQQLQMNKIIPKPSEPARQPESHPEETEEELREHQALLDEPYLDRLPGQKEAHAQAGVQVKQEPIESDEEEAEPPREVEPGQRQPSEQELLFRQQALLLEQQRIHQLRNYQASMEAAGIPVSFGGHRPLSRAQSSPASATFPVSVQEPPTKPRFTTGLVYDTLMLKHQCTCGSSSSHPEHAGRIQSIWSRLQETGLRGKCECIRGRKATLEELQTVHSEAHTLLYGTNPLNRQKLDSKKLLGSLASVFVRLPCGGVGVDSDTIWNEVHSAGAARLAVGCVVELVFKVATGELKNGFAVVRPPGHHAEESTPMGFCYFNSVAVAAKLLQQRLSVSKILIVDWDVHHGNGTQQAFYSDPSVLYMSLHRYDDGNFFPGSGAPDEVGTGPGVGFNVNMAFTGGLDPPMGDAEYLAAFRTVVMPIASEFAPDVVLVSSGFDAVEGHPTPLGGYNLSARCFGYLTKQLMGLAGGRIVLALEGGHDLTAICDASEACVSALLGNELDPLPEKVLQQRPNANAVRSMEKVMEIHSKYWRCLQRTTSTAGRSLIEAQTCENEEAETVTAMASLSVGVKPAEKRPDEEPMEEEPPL

Cn1cc(C2=C(C#N)C(c3ccc(Cl)cc3)c3c(nc(N)[nH]c3=O)N2)c2ccccc21 (configuration not stated)
IC50 [1]: 3.57 µM

O=C(Nc1ccc(Br)cc1)c1coc(-c2c[nH]c3cccnc23)n1
IC50 [2]: 0.36 µM

Nc1ccccc1Oc1cccc(C(c2c[nH]c3ccccc23)c2c[nH]c3ccccc23)c1
IC50 [3]: 23.6 µM

CS(=O)(=O)n1cc(-c2cc(-c3cccc(O)c3)[nH]c(=N)n2)c2ccccc21
Ratio IC50 [4]: >8 | Ratio IC50 [5]: >8 | Ratio IC50 [6]: >8

O=C(Cc1c[nH]c2ncccc12)N/N=C/c1cn(Cc2ccc(Cl)cc2Cl)c2ccccc12
IC50 [7]: 22.3 µM

O=c1nc(-c2cn(S(=O)(=O)c3ccccc3)c3ccccc23)cc(-c2cccc(O)c2)[nH]1
Ratio IC50 [4]: >8 | Ratio IC50 [5]: >8 | Ratio IC50 [6]: >8

N#Cc1ccc(Cn2cc(/C=N/NC(=O)Cc3c[nH]c4ncccc34)c3cc(Br)ccc32)cc1
IC50 [7]: 22.3 µM

C[C@H]1NC(=O)[C@@H](Cc2c[nH]c3ccccc23)n2c1nc1ccccc1c2=O [FUMIQUINAZOLINE G]
GI50 [8]: 7.62 µM | GI50 [9]: 7.62 µM | GI50 [10]: 7.62 µM

COc1cccc2c1C(=O)c1c(O)c3c(c(O)c1C2=O)C[C@@](O)(C(=O)CO)C[C@@H]3O[C@H]1C[C@H](N)[C@H](O)[C@H](C)O1 [DOXORUBICIN]
Activity [11]: 53.3%

O=C(Cc1c[nH]c2ncccc12)N/N=C/c1cn(Cc2ccc(Cl)cc2Cl)c2ccc(Br)cc12
IC50 [7]: 22.3 µM

COc1cnc2c(c1)c(-c1noc(-c3cn(C)c4ccc(Br)cc34)n1)cn2C
IC50 [12]: 3.55 µM

CS(=O)(=O)n1cc(-c2cc(-c3cccc(O)c3)[nH]c(=O)n2)c2ccccc21
Ratio IC50 [4]: >8 | Ratio IC50 [5]: >8 | Ratio IC50 [6]: >8

COc1ccc(OC)c(-c2cn3nc(-c4c[nH]c5ccc(Br)cc45)sc3n2)c1
IC50 [13]: < 10 µM | GI50 [14]: 1.67 µM | GI50 [15]: 10.3 µM | IC50 [16]: < 10 µM

CS(=O)(=O)n1cc(-c2cc(-c3cccc(O)c3)[nH]c(=S)n2)c2ccccc21
Ratio IC50 [4]: >8 | Ratio IC50 [5]: >8 | Ratio IC50 [6]: >8

CCCCCc1cc2cc(C)cc(/N=C/c3[nH]c(C)c(CCCCC)c3C)c2[nH]1
IC50 [17]: 4.2 µM

Cc1noc(C)c1-c1ccc2c(c1)c(Cc1ccc(F)cc1)cn2CCCCCCCC(=O)NO
inhibition [18]: 88% | IC50 [19]: 15.5 µM | IC50 [20]: 0.005 µM

CNC(=S)N/N=C/c1c(-c2ccc(OC)cc2)[nH]c2ccccc12
IC50 [21]: 12.5 µM | Ratio IC50 [22]: 2.27

COc1cc2cc(C(=O)N3CCC=C(Cl)C3=O)n(C)c2c(OC)c1OC
Activity [11]: 54.6%

COC(=O)c1ccc(C(=O)/C=C2\C(=O)Nc3ccc(S(=O)(=O)N4CCOCC4)cc32)cc1
IC50 [23]: < 10 µM | IC50 [24]: < 10 µM | IC50 [25]: < 10 µM
